Literature values in patent US5008256A, “Salts of ranitidine and complexes of bismuth with carboxylic acids, and pharmaceutical compositions thereof” (Glaxo Group Limited, priority 1988, dated 1991).

Experiments:
[1] = tested on: histamine H2 receptor; conditions: background; in words
[2] = tested on: Campylobacter pylori; conditions: background; in words

| SMILES | histamine H2-antagonist activity [1] | susceptibility of Campylobacter pylori [2] |
| --- | --- | --- |
| CNC(=C[N+](=O)[O-])NCCSCc1ccc(CN(C)C)o1 [Ranitidine, N-[2-[[[5-[(dimethylamino)-methyl]-2-furanyl]methyl]thio]ethyl]-N'-methyl-2-nitro-1,1-ethenediamine] | potent histamine H2 -antagonist |  |
| O=C([O-])CC(O)(CC(=O)[O-])C(=O)[O-].O=C([O-])CC(O)(CC(=O)[O-])C(=O)[O-].[Bi+3].[K+].[K+].[K+] [bismuth subcitrate, tripotassium dicitrato bismuthate] |  | susceptible |
